A value given as a limit tells only on which side of the number the result lay.

The IC50 is the concentration needed to halve the response being measured.

The target in this assay is Cav3.2 (Homo sapiens (Human), UniProt O95180). The assay is described as follows: In vitro patch clamp assay (SyncroPatch 384PE). In kind it is cell-based. The note with it: HEK293 cells. On the procedure:
Patch clamp assays were performed at Charles River. HEK293 cells were cultured in Dulbecco's Modified Eagle Medium/Nutrient Mixture F-12 (D-MEM/F-12) supplemented with 10% fetal bovine serum, 100 U/mL penicillin G sodium, 100 μg/mL streptomycin sulfate and 500 μg/mL G418. Before testing, cells in culture dishes were washed twice with Hank's Balanced Salt Solution, treated with Accutase™ and re-suspended in the culture media (˜20×10^6 cells in 20 mL). Cells in suspension were allowed to recover for 10 minutes in tissue culture incubator set at 37° C. in a humidified 95% air: 5% CO2 atmosphere. Immediately before use in the SyncroPatch 384PE system (SP384PE), the cells were washed twice in extracellular buffer (HB-PS) to remove the culture medium and re-suspended in 20 mL of HB-PS. Extracellular buffer was loaded into the wells of Nanion 384-well Patch Clamp (NPC-384, 4×M) chip (60 μL per well). Then, cell suspension was pipetted into the wells (20 μL per well) of the chip. After establishment of the whole-cell configuration, membrane currents were recorded using patch clamp amplifier in the SP384PE system.

Sequence of Cav3.2 (O95180 whole entry): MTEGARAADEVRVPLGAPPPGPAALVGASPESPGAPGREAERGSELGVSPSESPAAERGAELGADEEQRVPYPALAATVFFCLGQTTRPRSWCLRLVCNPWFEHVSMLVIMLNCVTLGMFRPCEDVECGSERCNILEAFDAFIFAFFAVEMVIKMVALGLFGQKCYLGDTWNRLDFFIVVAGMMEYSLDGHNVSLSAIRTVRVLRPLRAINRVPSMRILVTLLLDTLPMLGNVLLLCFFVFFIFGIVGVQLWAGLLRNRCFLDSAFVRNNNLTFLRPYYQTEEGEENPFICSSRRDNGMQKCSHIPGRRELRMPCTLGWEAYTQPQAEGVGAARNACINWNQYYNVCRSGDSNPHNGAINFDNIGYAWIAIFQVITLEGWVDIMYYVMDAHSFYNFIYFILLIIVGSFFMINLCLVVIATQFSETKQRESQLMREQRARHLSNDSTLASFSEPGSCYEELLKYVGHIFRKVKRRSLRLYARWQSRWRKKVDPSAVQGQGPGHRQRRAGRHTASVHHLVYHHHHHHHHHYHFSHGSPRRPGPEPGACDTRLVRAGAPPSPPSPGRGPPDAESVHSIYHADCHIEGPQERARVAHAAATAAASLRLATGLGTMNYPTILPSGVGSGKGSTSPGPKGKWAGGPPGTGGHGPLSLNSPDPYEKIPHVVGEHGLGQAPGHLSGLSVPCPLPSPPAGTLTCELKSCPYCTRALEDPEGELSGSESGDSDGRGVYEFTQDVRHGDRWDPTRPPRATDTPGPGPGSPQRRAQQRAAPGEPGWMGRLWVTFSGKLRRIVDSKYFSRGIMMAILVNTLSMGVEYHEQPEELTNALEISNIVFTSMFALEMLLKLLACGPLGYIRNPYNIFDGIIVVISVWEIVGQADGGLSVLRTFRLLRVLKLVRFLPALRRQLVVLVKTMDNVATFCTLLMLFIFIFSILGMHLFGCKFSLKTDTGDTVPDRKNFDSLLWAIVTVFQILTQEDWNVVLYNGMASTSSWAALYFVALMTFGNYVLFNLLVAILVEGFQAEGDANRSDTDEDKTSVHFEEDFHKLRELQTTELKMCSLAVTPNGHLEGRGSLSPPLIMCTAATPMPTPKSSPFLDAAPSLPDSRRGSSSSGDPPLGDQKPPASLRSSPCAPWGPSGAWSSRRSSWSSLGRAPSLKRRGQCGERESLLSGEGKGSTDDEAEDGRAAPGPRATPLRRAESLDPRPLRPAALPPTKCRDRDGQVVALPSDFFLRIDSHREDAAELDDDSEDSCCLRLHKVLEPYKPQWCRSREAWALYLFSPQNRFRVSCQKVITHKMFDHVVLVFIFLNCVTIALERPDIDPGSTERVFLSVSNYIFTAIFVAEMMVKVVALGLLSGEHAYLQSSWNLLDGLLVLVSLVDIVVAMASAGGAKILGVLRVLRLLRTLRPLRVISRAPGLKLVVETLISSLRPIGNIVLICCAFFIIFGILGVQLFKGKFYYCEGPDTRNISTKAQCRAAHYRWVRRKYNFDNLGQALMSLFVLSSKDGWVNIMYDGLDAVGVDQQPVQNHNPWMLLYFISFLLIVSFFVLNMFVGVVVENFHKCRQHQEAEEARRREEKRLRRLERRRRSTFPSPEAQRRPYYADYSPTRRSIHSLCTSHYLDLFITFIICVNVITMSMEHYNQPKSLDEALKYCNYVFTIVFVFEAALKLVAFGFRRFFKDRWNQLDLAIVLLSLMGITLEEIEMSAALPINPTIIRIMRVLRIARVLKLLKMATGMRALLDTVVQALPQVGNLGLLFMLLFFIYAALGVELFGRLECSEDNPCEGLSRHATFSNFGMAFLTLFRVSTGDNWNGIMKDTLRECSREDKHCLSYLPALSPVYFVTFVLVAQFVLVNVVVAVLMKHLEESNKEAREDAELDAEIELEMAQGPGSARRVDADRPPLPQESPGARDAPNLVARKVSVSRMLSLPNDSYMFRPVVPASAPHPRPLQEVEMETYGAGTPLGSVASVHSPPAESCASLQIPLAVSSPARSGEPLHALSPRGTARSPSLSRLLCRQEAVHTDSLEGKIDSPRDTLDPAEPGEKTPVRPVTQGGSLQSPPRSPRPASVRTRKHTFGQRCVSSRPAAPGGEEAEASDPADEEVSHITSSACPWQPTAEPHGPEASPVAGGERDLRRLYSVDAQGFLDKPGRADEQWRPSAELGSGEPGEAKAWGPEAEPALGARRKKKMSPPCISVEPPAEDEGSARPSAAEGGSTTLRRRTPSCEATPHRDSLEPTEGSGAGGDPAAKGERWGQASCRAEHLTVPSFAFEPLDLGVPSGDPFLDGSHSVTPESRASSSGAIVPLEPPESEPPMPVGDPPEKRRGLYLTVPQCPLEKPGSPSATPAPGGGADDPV

`C[C@@H](NC(=O)Cc1ccc(C2CC2(F)F)cc1)c1cc2cnn(CC(F)(F)F)c2cn1` (single isomer, unassigned) [Example 30] showed an IC50 of 0.475 µM. In the case of `C[C@@H](NC(=O)Cc1ccc(C2CC2(F)F)cc1)c1cc2cnn(CC(F)(F)F)c2cn1` (single isomer, unassigned) [Example 31] it was 0.505 µM. Under `CC(C)c1ccc(CC(=O)N[C@H](C)c2cc3cnn(C)c3cn2)cc1` [Example 1, (R)-2-(4-isopropylphenyl)-N-(1-(1-methyl-1H-pyrazolo[3,4-c]pyridin-5-yl)ethyl)acetamide] stands 0.522 µM; under `CC(C)c1ccc(CC(=O)N[C@H](C)c2cc3cn(C)nc3cn2)cc1` [Example 2, (R)-2-(4-isopropylphenyl)-N-(1-(2-methyl-2H-pyrazolo[3,4-c]pyridin-5-yl)ethyl)acetamide], 6.45 µM; under `CC(C)c1ccc(CC(=O)N[C@H](C)c2cc3c(cn2)cnn3C)cc1` [Example 3, (R)-2-(4-isopropylphenyl)-N-(1-(1-methyl-1H-pyrazolo[4,3-c]pyridin-6-yl)ethyl)acetamide], above 10 µM. `CC(C)c1ccc(CC(=O)N[C@H](C)c2cc3nn(C)cc3cn2)cc1` [Example 4, (R)-2-(4-isopropylphenyl)-N-(1-(2-methyl-2H-pyrazolo[4,3-c]pyridin-6-yl)ethyl)acetamide] came in with an IC50 above 10 µM. In the case of `Cc1noc2cc([C@@H](C)NC(=O)Cc3ccc(C(C)C)cc3)ncc12` [Example 5, (R)-2-(4-isopropylphenyl)-N-(1-(3-methylisoxazolo[4,5-c]pyridin-6-yl)ethyl)acetamide] it was 1.22 µM; in that of `Cc1noc2cnc([C@@H](C)NC(=O)Cc3ccc(C(C)C)cc3)cc12` [Example 6, (R)-2-(4-isopropylphenyl)-N-(1-(3-methylisoxazolo[5,4-c]pyridin-5-yl)ethyl)acetamide], 7.84 µM. In the case of `CCCn1ncc2cc([C@@H](C)NC(=O)Cc3ccc(C(C)C)cc3)ncc21` [Example 7, (R)-2-(4-isopropylphenyl)-N-(1-(1-propyl-1H-pyrazolo[3,4-c]pyridin-5-yl)ethyl)acetamide] it was 0.11 µM; in that of `CCn1ncc2cc([C@@H](C)NC(=O)Cc3ccc(C(C)C)cc3)ncc21` [Example 8, (R)—N-(1-(1-ethyl-1H-pyrazolo[3,4-c]pyridin-5-yl)ethyl)-2-(4-isopropylphenyl)acetamide], 0.126 µM; in that of `CC(C)c1ccc(CC(=O)N[C@H](C)c2cc3cnn(CC(F)(F)F)c3cn2)cc1` [Example 9, (R)-2-(4-isopropylphenyl)-N-(1-(1-(2,2,2-trifluoroethyl)-1H-pyrazolo[3,4-c]pyridin-5-yl)ethyl)acetamide], 0.044 µM. As for `C[C@@H](NC(=O)Cc1ccc(C2(C(F)(F)F)CC2)cc1)c1cnc2c(cnn2C)c1` [Example 10, (R)—N-(1-(1-methyl-1H-pyrazolo[3,4-b]pyridin-5-yl)ethyl)-2-(4-(1-(trifluoromethyl)cyclopropyl)phenyl)acetamide], the IC50 is above 10 µM. `CCCn1cc2cc([C@@H](C)NC(=O)Cc3ccc(C(C)C)cc3)ncc2n1` [Example 11, (R)-2-(4-isopropylphenyl)-N-(1-(2-propyl-2H-pyrazolo[3,4-c]pyridin-5-yl)ethyl)acetamide] gave an IC50 of 2.42 µM. Under `C[C@@H](NC(=O)Cc1ccc(C2(C(F)(F)F)CC2)cc1)c1cc2cnn(C)c2cn1` [Example 12, (R)—N-(1-(1-methyl-1H-pyrazolo[3,4-c]pyridin-5-yl)ethyl)-2-(4-(1-(trifluoromethyl)cyclopropyl)phenyl)acetamide] stands 0.647 µM; under `CC(C)c1ccc(CC(=O)N[C@H](C)c2cc3cnn(C)c3nn2)cc1` [Example 13, (R)-2-(4-isopropylphenyl)-N-(1-(1-methyl-1H-pyrazolo[3,4-c]pyridazin-5-yl)ethyl)acetamide], 0.71 µM; under `CC(C)c1ccc(CC(=O)N[C@H](C)c2cc3cnn(CC(C)(F)F)c3cn2)cc1` [Example 14, (R)—N-(1-(1-(2,2-difluoropropyl)-1H-pyrazolo[3,4-c]pyridin-5-yl)ethyl)-2-(4-isopropylphenyl)acetamide], 0.085 µM. Compound `C[C@@H](NC(=O)Cc1ccc(C(C)(F)F)nc1)c1cc2cnn(CC(F)(F)F)c2cn1` [Example 16, (R)-2-(6-(1,1-difluoroethyl)pyridin-3-yl)-N-(1-(1-(2,2,2-trifluoroethyl)-1H-pyrazolo[3,4-c]pyridin-5-yl)ethyl)acetamide] returned an IC50 of 1.27 µM. In the case of `C[C@@H](NC(=O)Cc1ccc(C2(C(F)(F)F)CC2)s1)c1cc2cnn(CC(F)(F)F)c2cn1` [Example 17, (R)—N-(1-(1-(2,2,2-trifluoroethyl)-1H-pyrazolo[3,4-c]pyridin-5-yl)ethyl)-2-(5-(1-(trifluoromethyl)cyclopropyl)thiophen-2-yl)acetamide] it was 0.292 µM; in that of `CC(C)c1ccc(CC(=O)N[C@H](C)c2cc3cnn(CC4(F)CC4)c3cn2)cc1` [Example 18, (R)—N-(1-(1-((1-fluorocyclopropyl)methyl)-1H-pyrazolo[3,4-c]pyridin-5-yl)ethyl)-2-(4-isopropylphenyl)acetamide], 0.343 µM; in that of `C[C@@H](NC(=O)Cc1ccc(C(C)(F)F)cc1)c1cc2cnn(CC(F)(F)F)c2cn1` [Example 19, (R)-2-(4-(1,1-difluoroethyl)phenyl)-N-(1-(1-(2,2,2-trifluoroethyl)-1H-Pyrazolo[3,4-c]pyridin-5-yl)ethyl)acetamide], 0.132 µM. Under `CC(C)c1ccc(CC(=O)N[C@H](C)c2cc3cnn(CC(F)(F)F)c3cn2)cn1` [Example 20, (R)-2-(6-isopropylpyridin-3-yl)-N-(1-(1-(2,2,2-trifluoroethyl)-1H-pyrazolo[3,4-c]pyridin-5-yl)ethyl)acetamide] stands 1.05 µM. In the case of `C[C@@H](NC(=O)Cc1ccc(C2(C(F)F)CC2)nc1)c1cc2cnn(CC(F)(F)F)c2cn1` [Example 21, (R)-2-(6-(1-(difluoromethyl)cyclopropyl)pyridin-3-yl)-N-(1-(1-(2,2,2-trifluoroethyl)-1H-pyrazolo[3,4-c]pyridin-5-yl)ethyl)acetamide] it was 0.637 µM; in that of `C[C@@H](NC(=O)Cc1ccc(C2(C(F)F)CC2)cc1)c1cc2cnn(CC(F)(F)F)c2cn1` [Example 22, (R)-2-(4-(1-(difluoromethyl)cyclopropyl)phenyl)-N-(1-(1-(2,2,2-trifluoroethyl)-1H-pyrazolo[3,4-c]pyridin-5-yl)ethyl)acetamide], 0.194 µM; in that of `C[C@@H](NC(=O)Cc1ccc(C2CC2)nc1)c1cc2cnn(-c3ccc(F)cc3)c2cn1` [Example 23, (R)-2-(6-cyclopropylnyridin-3-yl)-N-(1-(1-(4-fluorophenyl)-1H-pyrazolo[3,4-c]pyridin-5-yl)ethyl)acetamide], 4.02 µM.

Regarding `C[C@@H](NC(=O)Cc1ccc(C2CC2)cc1)c1cc2nnn(CC(F)(F)F)c2cn1` [Example 24, (R)-2-(4-cyclopropylphenyl)-N-(1-(3-(2,2,2-trifluoroethyl)-3H-[1,2,3]triazolo[4,5-c]pyridin-6-yl)ethyl)acetamide], the IC50 is 0.333 µM. Under `C[C@@H](NC(=O)Cc1ccc(C2CC2)nc1)c1cc2cnn(CC(F)(F)F)c2cn1` [Example 25, (R)-2-(6-cyclopropylpyridin-3-yl)-N-(1-(1-(2,2,2-trifluoroethyl)-1H-pyrazolo[3,4-c]pyridin-5-yl)ethyl)acetamide] stands 2.59 µM; under `C[C@@H](NC(=O)Cc1ccc(C2(C(F)(F)F)CC2)nc1)c1cc2cnn(CC(F)(F)F)c2cn1` [Example 26, (R)—N-(1-(1-(2,2,2-trifluoroethyl)-1H-pyrazolo[3,4-c]pyridin-5-yl)ethyl)-2-(6-(1-(trifluoromethyl)cyclopropyl)pyridin-3-yl)acetamide], 7.03 µM; under `C[C@@H](NC(=O)Cc1ccc(C2CC2)cc1)c1cc2cnn(-c3ccc(F)cc3)c2cn1` [Example 27, (R)-2-(4-cyclopropylphenyl)-N-(1-(1-(4-fluorophenyl)-1H-Pyrazolo[3,4-c]pyridin-5-yl)ethyl)acetamide], 0.861 µM. `C[C@@H](NC(=O)Cc1ccc(C2CC2)cc1)c1cc2cnn(CC(F)(F)F)c2cn1` [Example 28, (R)-2-(4-cyclopropylphenyl)-N-(1-(1-(2,2,2-trifluoroethyl)-1H-pyrazolo[3,4-c]pyridin-5-yl)ethyl)acetamide] had an IC50 of 0.089 µM. As for `C[C@@H](NC(=O)Cc1ccc(C2(F)CC2)cc1)c1cc2cnn(CC(F)(F)F)c2cn1` [Example 29, (R)-2-(4-(1-fluorocyclopropyl)phenyl)-N-(1-(1-(2,2,2-trifluoroethyl)-1H-pyrazolo[3,4-c]pyridin-5-yl)ethyl)acetamide], the IC50 is 0.533 µM. The compound `Cc1nn(CC(F)(F)F)c2cnc([C@@H](C)NC(=O)Cc3ccc(C(C)C)cc3)cc12` [Example 32, (R)-2-(4-isopropylphenyl)-N-(1-(3-methyl-1-(2,2,2-trifluoroethyl)-1H-pyrazolo[3,4-c]pyridin-5-yl)ethyl)acetamide] gave an IC50 of 9.42 µM.

Take `Cc1nn(CC(F)(F)F)c2cnc([C@@H](C)NC(=O)Cc3ccc(C4CC4)cc3)cc12` [Example 33, (R)-2-(4-cyclopropylphenyl)-N-(1-(3-methyl-1-(2,2,2-trifluoroethyl)-1H-pyrazolo[3,4-c]pyridin-5-yl)ethyl)acetamide]: the IC50 amounted to 8.27 µM.
